# Laboratory results as given in US11254663B2 (BRISTOL-MYERS SQUIBB COMPANY, priority 2019, dated 2022).
# Molecular target: FXR (Homo sapiens (Human), UniProt Q96RI1)
# Experiment: transient human FXR/Gal4-luciferase reporter assay
# Assay type: cell-based
# Conditions: not given
# Summary of the method: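 HEK293 cells stably carrying a 5×Gal4 response element–firefly luciferase reporter were transiently transfected overnight with a Gal4 DBD–human FXR LBD fusion plasmid. Compound was added in DMSO and cells were incubated overnight at 37 °C, 5% CO2. Activity was read as Steady-Glo luminescence.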
# Chain of FXR (Q96RI1 262-486): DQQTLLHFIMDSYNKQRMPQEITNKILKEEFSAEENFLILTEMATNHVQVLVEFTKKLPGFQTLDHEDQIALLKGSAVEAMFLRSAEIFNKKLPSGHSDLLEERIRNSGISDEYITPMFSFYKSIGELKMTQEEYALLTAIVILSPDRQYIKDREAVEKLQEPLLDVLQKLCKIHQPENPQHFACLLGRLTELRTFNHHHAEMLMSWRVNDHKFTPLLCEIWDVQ
row,Compound,EC50
1,"O=C(C1CC(F)(F)C1)N(CC12CCC(c3nc(C4CC4)no3)(CC1)CC2)c1cccc(-c2nc3cc(F)ccc3o2)c1 [Example 560, N-((4-(3-cyclopropyl-1,2,4-oxadiazol-5-yl)bicyclo[2.2.2]octan-1-yl)methyl)-3,3-difluoro-N-(3-(5-fluorobenzo[d]oxazol-2-yl)phenyl)cyclobutane-1-carboxamide]",1510 nM
2,"Cc1nc2ccc(-c3cccc(N(CC45CCC(c6nnc(C7CC7)o6)(CC4)CC5)C(=O)C4CC(C(F)F)C4)c3)cc2s1 (centres unmarked) [Example 562, N-((4-(5-cyclopropyl-1,3,4-oxadiazol-2-yl)bicyclo[2.2.2]octan-1-yl)methyl)-3-(difluoromethyl)-N-(3-(2-methylbenzo[d]thiazol-6-yl)phenyl)cyclobutane-1-carboxamide]",318 nM
3,"Cc1nc2ccc(-c3cccc(N(CC45CCC(c6nnc(C7CC7)o6)(CC4)CC5)C(=O)C4CCC(F)(F)C4)c3)cc2s1 (centres unmarked) [Example 563, N-((4-(5-cyclopropyl-1,3,4-oxadiazol-2-yl)bicyclo[2.2.2]octan-1-yl)methyl)-3,3-difluoro-N-(3-(2-methylbenzo[d]thiazol-6-yl)phenyl)cyclopentane-1-carboxamide]",154 nM
4,"Cc1nc2ccc(-c3cccc(N(CC45CCC(c6nc(C7CC7)no6)(CC4)OC5)C(=O)C4CC(F)(F)C4)c3)cc2s1 [Example 565, N-((1-(3-cyclopropyl-1,2,4-oxadiazol-5-yl)-2-oxabicyclo[2.2.2]octan-4-yl)methyl)-3,3-difluoro-N-(3-(2-methylbenzo[d]thiazol-6-yl)phenyl)cyclobutane-1-carboxamide]",947 nM
5,"Cc1nc2ccc(-c3cccc(N(CC45CCC(c6nc(C7CC7)no6)(CC4)OC5)C(=O)C4CC(C(F)F)C4)c3)cc2s1 (centres unmarked) [Example 566, N-((1-(3-cyclopropyl-1,2,4-oxadiazol-5-yl)-2-oxabicyclo[2.2.2]octan-4-yl)methyl)-3-(difluoromethyl)-N-(3-(2-methylbenzo[d]thiazol-6-yl)phenyl)cyclobutane-1-carboxamide]",922 nM
6,"Cc1nc2ccc(-c3cccc(N(CC45CCC(c6nc(C7CC7)no6)(CC4)OC5)C(=O)C4CCC(F)(F)C4)c3)cc2s1 (centres unmarked) [Example 567, N-((1-(3-cyclopropyl-1,2,4-oxadiazol-5-yl)-2-oxabicyclo[2.2.2]octan-4-yl)methyl)-3,3-difluoro-N-(3-(2-methylbenzo[d]thiazol-6-yl)phenyl)cyclopentane-1-carboxamide]",432 nM

# Same assay, conditions: Gal4-hFXR fusion construct, HEK293 reporter cells; response relative to 8 μM GW-4064
row,EC50,Compound
1,217 nM,"O=C(N(CC12CCC(c3nc(C4CC4)no3)(CC1)CC2)c1cccc(-c2nc3cc(F)ccc3o2)c1)C12CC(F)(C1)C2 [Example 559, N-((4-(3-Cyclopropyl-1,2,4-oxadiazol-5-yl)bicyclo[2.2.2]octan-1-yl)methyl)-3-fluoro-N-(3-(5-fluorobenzo[d]oxazol-2-yl)phenyl)bicyclo[1.1.1]pentane-1-carboxamide]"
2,58 nM,"Cc1nc2ccc(-c3cccc(N(CC45CCC(c6nnc(C7CC7)o6)(CC4)CC5)C(=O)C45CC(F)(C4)C5)c3)cc2s1 [Example 561, N-((4-(5-cyclopropyl-1,3,4-oxadiazol-2-yl)bicyclo[2.2.2]octan-1-yl)methyl)-3-fluoro-N-(3-(2-methylbenzo[d]thiazol-6-yl)phenyl)bicyclo[1.1.1]pentane-1-carboxamide]"
3,207 nM,"Cc1nc2ccc(-c3cccc(N(CC45CCC(c6nc(C7CC7)no6)(CC4)OC5)C(=O)C45CC(F)(C4)C5)c3)cc2s1 [Example 564, N-((1-(3-cyclopropyl-1,2,4-oxadiazol-5-yl)-2-oxabicyclo[2.2.2]octan-4-yl)methyl)-3-fluoro-N-(3-(2-methylbenzo[d]thiazol-6-yl)phenyl)bicyclo[1.1.1]pentane-1-carboxamide]"
4,2440 nM,"Cc1nc2ccc(-c3cccc(N(CC45CCC(c6ccc(C#N)cc6)(CC4)OC5)C(=O)C45CC(F)(C4)C5)c3)cc2s1 [Example 568, N-((1-(4-Cyanophenyl)-2-oxabicyclo[2.2.2]octan-4-yl)methyl)-3-fluoro-N-(3-(2-methylbenzo[d]thiazol-6-yl)phenyl)bicyclo[1.1.1]pentane-1-carboxamide]"
5,2220 nM,"Cc1nc2ccc(-c3cccc(N(CC45CCC(c6ccc(C(=O)N(C)C)cc6)(CC4)OC5)C(=O)C45CC(F)(C4)C5)c3)cc2s1 [Example 569, N-((1-(4-(dimethylcarbamoyl)phenyl)-2-oxabicyclo[2.2.2]octan-4-yl)methyl)-3-fluoro-N-(3-(2-methylbenzo[d]thiazol-6-yl)phenyl)bicyclo[1.1.1]pentane-1-carboxamide]"
6,926 nM,"COc1cc(-c2cccc(N(CC34CCC(C(=O)NC5CC5)(CC3)CC4)C(=O)C34CC(F)(C3)C4)c2)ccn1 [Example 570, N-cyclopropyl-4-((3-fluoro-N-(3-(2-methoxypyridin-4-yl)phenyl)bicyclo[1.1.1]pentane-1-carboxamido)methyl)bicyclo[2.2.2]octane-1-carboxamide]"
7,47 nM,"CC(F)(F)c1nc(C23CCC(CN(C(=O)C45CC(F)(C4)C5)c4cccc(C5CC5)c4)(CC2)CC3)no1 [Example 571, N-(3-cyclopropylphenyl)-N-((4-(5-(1,1-difluoroethyl)-1,2,4-oxadiazol-3-yl)bicyclo[2.2.2]octan-1-yl)methyl)-3-fluorobicyclo[1.1.1]pentane-1-carboxamide]"
8,146 nM,"O=C(N(CC12CCC(c3noc(C(F)(F)F)n3)(CC1)CC2)c1cccc(C2CC2)c1)C12CC(F)(C1)C2 [Example 572, N-(3-cyclopropylphenyl)-3-fluoro-N-((4-(5-(trifluoromethyl)-1,2,4-oxadiazol-3-yl)bicyclo[2.2.2]octan-1-yl)methyl)bicyclo[1.1.1]pentane-1-carboxamide]"
9,44 nM,"O=C(N(CC12CCC(c3noc(C4(F)CC4)n3)(CC1)CC2)c1cccc(C2CC2)c1)C12CC(F)(C1)C2 [Example 573, N-(3-cyclopropylphenyl)-3-fluoro-N-((4-(5-(1-fluorocyclopropyl)-1,2,4-oxadiazol-3-yl)bicyclo[2.2.2]octan-1-yl)methyl)bicyclo[1.1.1]pentane-1-carboxamide]"
10,244 nM,"CC(F)(F)c1nc(C23CCC(CN(C(=O)C45CC(F)(C4)C5)c4ccc(F)c(C5CC5)c4)(CC2)CC3)no1 [Example 574, N-(3-cyclopropyl-4-fluorophenyl)-N-((4-(5-(1,1-difluoroethyl)-1,2,4-oxadiazol-3-yl)bicyclo[2.2.2]octan-1-yl)methyl)-3-fluorobicyclo[1.1.1]pentane-1-carboxamide]"
11,410 nM,"CC(F)(F)c1nc(C23CCC(CN(C(=O)C45CC(F)(C4)C5)c4ccc(F)c(N5CCC5)c4)(CC2)CC3)no1 [Example 575, N-(3-(azetidin-1-yl)-4-fluorophenyl)-N-((4-(5-(1,1-difluoroethyl)-1,2,4-oxadiazol-3-yl)bicyclo[2.2.2]octan-1-yl)methyl)-3-fluorobicyclo[1.1.1]pentane-1-carboxamide]"
12,19 nM,"CC(C)(O)c1ccc(-c2cccc(N(C[C@]34CC[C@](c5noc(C(C)(C)F)n5)(CC3)CC4)C(=O)C3CC(O)(C(F)(F)F)C3)c2)cc1 (stereo partly drawn) [Example 576, (cis)-N-((4-(5-(2-fluoropropan-2-yl)-1,2,4-oxadiazol-3-yl)bicyclo[2.2.2]octan-1-yl)methyl)-3-hydroxy-N-(4′-(2-hydroxypropan-2-yl)-[1,1′-biphenyl]-3-yl)-3-(trifluoromethyl)cyclobutane-1-carboxamide]"
13,23 nM,"CC(C)(O)c1ccc(-c2cccc(N(CC34CCC(c5noc(C(C)(C)F)n5)(CC3)CC4)C(=O)[C@H]3C[C@@](C)(O)C3)c2)cc1 [Example 577, (cis)-N-((4-(5-(2-fluoropropan-2-yl)-1,2,4-oxadiazol-3-yl)bicyclo[2.2.2]octan-1-yl)methyl)-3-hydroxy-N-(4′-(2-hydroxypropan-2-yl)-[1,1′-biphenyl]-3-yl)-3-methylcyclobutane-1-carboxamide]"
14,92 nM,"N#CC1(c2ccc(-c3cccc(N(CC45CCC(c6noc(C7(F)CC7)n6)(CC4)CC5)C(=O)[C@H]4C[C@](O)(C(F)(F)F)C4)c3)cc2F)CC1 [Example 578, (cis)-N-(4′-(1-cyanocyclopropyl)-3′-fluoro-[1,1′-biphenyl]-3-yl)-N-((4-(5-(1-fluorocyclopropyl)-1,2,4-oxadiazol-3-yl)bicyclo[2.2.2]octan-1-yl)methyl)-3-hydroxy-3-(trifluoromethyl)cyclobutane-1-carboxamide]"
15,45 nM,"O=C(N(CC12CCC(c3noc(C4(F)CC4)n3)(CC1)CC2)c1cccc(-c2cnc(C3CC3)nc2)c1)C12CC(F)(C1)C2 [Example 579, N-(3-(2-cyclopropylpyrimidin-5-yl)phenyl)-3-fluoro-N-((4-(5-(1-fluorocyclopropyl)-1,2,4-oxadiazol-3-yl)bicyclo[2.2.2]octan-1-yl)methyl)bicyclo[1.1.1]pentane-1-carboxamide]"
16,160 nM,"O=C(N(CC12CCC(c3noc(C(F)(F)F)n3)(CC1)CC2)c1cccc(-c2cnc(C3CC3)nc2)c1)C12CC(F)(C1)C2 [Example 580, N-(3-(2-cyclopropylpyrimidin-5-yl)phenyl)-3-fluoro-N-((4-(5-(trifluoromethyl)-1,2,4-oxadiazol-3-yl)bicyclo[2.2.2]octan-1-yl)methyl)bicyclo[1.1.1]pentane-1-carboxamide]"
17,74 nM,"CC(C)Oc1ccc(-c2cc(N(CC34CCC(c5noc(C6(F)CC6)n5)(CC3)CC4)C(=O)[C@H]3C[C@](O)(C(F)(F)F)C3)ccc2F)cc1 [Example 581, (cis)-N-(6-fluoro-4′-isopropoxy-[1,1′-biphenyl]-3-yl)-N-((4-(5-(1-fluorocyclopropyl)-1,2,4-oxadiazol-3-yl)bicyclo[2.2.2]octan-1-yl)methyl)-3-hydroxy-3-(trifluoromethyl)cyclobutane-1-carboxamide]"
